“And” between values parts separate entries of the source, which are not always exact repeats. Identical values can stand only once. “Also recorded” adds a separate entry of the source.
Experiments:
[1] = tested on: mice embryos; experiment: In-vitro embryo development in Quinn's Advantage cleavage media; format: cell-based
Method: CBA male mice were bred with BL C57 female mice. The mice were kept on a 12 hours photoperiod schedule with unlimited water and food supply. About 6 to 8 weeks after receiving offspring, each female mouse was injected IP with 5IU of pregnant mare serum gonadotropin (PMSG).
After 48 hours each female mouse was injected IP with 5IU human chorionic gonadotropin (hCG). Male mice proven to be fertile were then put together with the superovulated females. The next morning the female mice were examined for the presence of copulatory plugs. Females that had copulatory plugs were euthanized after 24 hours (approximately 36 hours post-coitus) and embryos at 2 cell stage were retrieved from the oviducts as following: the oviducts were dissected in Quinn's Advantage cleavage media (SAGE, Origio, Denmark) and the embryos were transferred to 20 μL drops with Quinn's Advantage cleavage media (SAGE, Origio, Denmark) overlaid with mineral oil and cultured at 37.0° C. under 5% CO2 and atmospheric oxygen. The collected embryos continued to grow, i.e. in-vitro culture (IVC), until blastocyst/hatching stage. To test the effect of amorphous calcium carbonate, the Quinn's Advantage cleavage media (“cleavage media” hereinafter) was supplemented with different additives, i.e. amorphous calcium carbonate stabilized by polyphosphate (ACC-PP), crystalline calcium carbonate (CCC), polyphosphate (PP), phosphoserine (PS) or sodium carbonate ([…]). All supplements were added as a freshly prepared suspension; the preparation of the ACC supplements were performed under aseptic conditions. Untreated cleavage media (without addition of any additive) was used as a control (identified as Cont Q). The embryos were evaluated every day by microscope observation for a detection of the following stages: 2 cells, compactions stage, blastocysts formation and hatching stage. The fraction (in percent) of the embryos reached each stage was calculated (the number of 2 cells embryos was set as 100%).

[2] = tested on: spinal cord-dorsal root ganglia (SC-DRG) slices; experiment: Nerve fiber sprouting from SC-DRG co-cultures; format: cell-based, rat; conditions: Ca2+ 2 mM; 4 days of cultivation; portion of 6 explants
Method: Neural and Vascular Reconstruction Gel ([…] Labs proprietary) is composed of two main components: high molecular hyaluronic acid (HA, 3×10^6 Da, BTG, Israel) and laminin (Sigma). […] The gel has the texture of a viscous liquid, it adheres easily and successfully the embedded cells or explants to the plastic or glass substratum, and enabled nerve fiber outgrowth in a 3D pattern. All the experiments were carried out and authorized by the local ethics committee recognized by the Israeli authorities for animal experimentation. Stationary organotypic cultures of dorsal root ganglia (DRG) and spinal cord (SC) as well as cultures of dissociated brain cells were prepared from rat fetuses (15 days of gestation, Lewis inbred, Harlan, Israel). Immediately after dissection, the isolated tissues were cut with a […] tissue chopper into small slices (of 400 μm thickness). In these studies, two tissue culture strategies were used. […] In the second method, the tissue slices were further dissociated with a trypsin-EDTA solution for 30 min, and washed with a culture medium. Subsequently, the dissociated cells were added to a suspension of chitosan powder or gastrolith powder (micro carriers, MCs) and incubated in suspension at 37° C. for 4 days. […] The cultures were monitored by daily phase contrast microscopic observations starting from 24 hours after setting the cultures onward. […]

[3] = tested on: mdx cell line; conditions: final Ca2+ 2 mM
Method: Cells from the Mdx cell line were seeded in a Gelatin coated 12 wells culture plate, 3×10^4 cells/well containing 1 mL of Proliferation Medium. Two days later (˜66% confluence), the medium was changed to Fusion Medium which was changed twice a week. The various calcium preparations were separately added to the Fusion Medium according to the treatment described in Table 3. Cultures were enriched with the various calcium preparations, at Ca^2+ concentration of 1 mM. Since the medium already contained 1 mM of calcium ions, then the final concentration of Ca2+ was of 2 mM
The effects of the tested calcium preparations on cell proliferation, fusion to form myotubes and muscle contraction were monitored by daily phase contrast microscopic observation.

[4] = tested on: skeletal muscle cultures; experiment: Myotube formation and contractility in healthy skeletal muscle cultures; format: cell-based, rat; conditions: added 1 mM, final Ca2+ 2 mM
Method: Stationary skeletal muscle cultures were prepared from healthy 1 day new born rat (Sprague Dawley, Harlan, Israel). The muscle tissue was dissected from posterior legs and was thoroughly minced. Digestion was performed with Trypsin-EDTA while gentle trituration. After 30 min the supernatant, containing dissociated cells, was collected and a fresh Trypsin-EDTA was added. This procedure was repeated two more times. Then, all supernatants were pooled, centrifuged, and the cell pellet was re-suspended in Proliferation Medium. Cells were seeded in a Gelatin coated 12 wells culture plates, 1×10^5 cells/well containing 1 mL of Proliferation Medium. Two days later, the medium was changed to Fusion Medium, which was then changed twice a week. The cultures were monitored by daily phase contrast microscopic observations from 24 hours after setting the cultures and onward.
Stock solution of 1% porcine gelatin in water, was sterilized by autoclave. Once cooled, 500 μl of the solution were added to each well of the 12-wells culture plat. After incubation for 20 min at room temperature, the excess solution was removed, and the cells were seeded.
For the proliferation stage, cells were cultured in: DMEM/F12 (containing 1 mM Ca^2+)+10% FBS, 25 μg/mL Gentamycin, and 2 mM L-Glutamine. […]

[5] = tested on: MBA-13 cells; experiment: Differentiation of MBA13 stem cells to osteoblasts (Alizarin red, alkaline phosphatase staining); format: cell-based; conditions: additional 1 mM calcium (total 2.488 mM); 10 days; gelatin coating
Method: Two days following thawing, MBA-13 cells (received from Prof. Dov Zipori, Weizmann Institute of Science) were re-suspended in recombinant trypsin solution and seeded on a 96 wells plate, (Day “0”) in a concentration of 1×10^4 cells/well using MSC Nutristem® XF basal medium (Biological Industries, cat #05-200-1A) supplemented with Mesenchymal stem cells (MSC) supplement mix medium (Biological Industries cat #05-201-06) in a ratio of 50 ml:300 μl. […] Row G in the plate was treated with MSCgo medium (total 1.488 mM calcium). Row H of the plate was treated with MSC NutriStem® XF nutrient basal medium+ supplement mix (total 1.488 mM calcium). On day 4, medium was exchanged with fresh preparations of ACC. […] Once the cells were fixated, two types of staining reagents were used to stain extracellular calcium or bone deposition in order to estimate osteoblasts functionality: (i) Alizarin red (Sigma A55333) and (ii) Alkaline Phosphatase (DAKO BCIP/NBT substrate system […]) as following: Alizarin red staining procedure-pH was adjusted to 4.2. Cells were washed twice with PBS and fixed with cold methanol for 5 minutes and then washed again with PBS. […] Then, washed 3 times with PBS and following removal of PBS remnants, 3 drops of BCIP/NBT kit solution was used to cover the cells including one empty well without any cells as control to quantify the assay. […]

[6] = Example 10, 1.7 mM, embryos of each of 4 mice grown separately, one line per mouse
[7] = Example 14, pooled embryos, 1.7 mM
[8] = Example 15, 1.7 mM, pooled embryos of mice 3-6
[9] = Example 15, 1.7 mM, sibling embryos (mouse 1: CCC; mouse 2: ACC-PP, NaCO3)
[10] = Example 11, 1.6 mM, pooled embryos of mice 3-7
[11] = Example 12, pooled embryos, 1.6 mM

Compound: [Ca+2].[Cl-].[Cl-] [CaCl2, calcium chloride]
- Blast/d3, number of embryos ([1]; Example 7 Test A, 1.7 mM): 16
- Blast/d3, portion of initial number of embryos ([1]; Example 7 Test A, 1.7 mM): 64%
- Comp/d2, portion of initial number of embryos ([1]; Example 7 Test A, 1.7 mM): 64%
- comp/d2, number of embryos ([1]; Example 7 Test A, 1.7 mM): 16
- Blast/d3, number of embryos ([1]; Example 7 Test B, 1.7 mM): 20
- Blast/d3, portion of initial number of embryos ([1]; Example 7 Test B, 1.7 mM): 74%
- Comp/d2, portion of initial number of embryos ([1]; Example 7 Test B, 1.7 mM): 70%
- Hatch/d4, number of embryos ([1]; Example 7 Test B, 1.7 mM): 11
- Hatch/d4, portion of initial number of embryos ([1]; Example 7 Test B, 1.7 mM): 40.7%
- comp/d2, number of embryos ([1]; Example 7 Test B, 1.7 mM): 20
- Blast/d3, number of embryos ([1]; Example 8, 1.7 mM): 8
- Blast/d3, portion of initial number of embryos ([1]; Example 8, 1.7 mM): 80%
- Comp/d2, portion of initial number of embryos ([1]; Example 8, 1.7 mM): 30%
- Hatch/d4, number of embryos ([1]; Example 8, 1.7 mM): 3
- Hatch/d4, portion of initial number of embryos ([1]; Example 8, 1.7 mM): 30%
- comp/d2, number of embryos ([1]; Example 8, 1.7 mM): 3
- Blast/d3, number of embryos ([1]; Example 9, 1.7 mM): 24
- Blast/d3, portion of initial number of embryos ([1]; Example 9, 1.7 mM): 80%
- Comp/d2, portion of initial number of embryos ([1]; Example 9, 1.7 mM): 53.3%
- Hatch/d4, number of embryos ([1]; Example 9, 1.7 mM): 13
- Hatch/d4, portion of initial number of embryos ([1]; Example 9, 1.7 mM): 43.3%
- comp/d2, number of embryos ([1]; Example 9, 1.7 mM): 16
- 8Cell/d2, number of embryos ([1]; Example 10, 1.7 mM, embryos of each of 4 mice (5 months old) grown separately, one line per mouse): 0 (2×) and 4 and 2
- Blast/d3, number of embryos [1, 6]: 2 and 5 and 12 and 1
- Blast/d3, portion of initial number of embryos [1, 6]: (8.3) %; also recorded: (22.2) %; also recorded: (50) %; also recorded: (66.7) %
- Hatch/d4, number of embryos [1, 6]: 0 (2×) and 3 and 7
- Hatch/d4, portion of initial number of embryos [1, 6]: (0) %; also recorded: (30) %; also recorded: (41.2) %
- comp/d2, number of embryos [1, 6]: 3 and 6 and 10 and 1
- effect on embryonic development (blastocysts and hatched blastocysts) ([1]; Example 14, 1.7 mM): negative effect on embryonic development
- 8 cell/d2, number of embryos [1, 7]: 6
- Blast/d3, number of embryos [1, 7]: 10
- Blast/d3, portion of initial number of embryos [1, 7]: 90.90%
- Hatch/d4, number of embryos [1, 7]: 4
- Hatch/d4, portion of initial number of embryos [1, 7]: 36.36%
- comp/d2, number of embryos [1, 7]: 5
- Cultures with axonal regeneration (%) [2]: 50%
- muscle contractions first observed, day after seeding [3]: ≥ 10 days
- muscle fibers after 7 days ([4]; 7 days): fewer, thinner and shorter muscle fibers
- time to formation of myotubes ([4]; dry powder suspended in water): myotubes formation was observed later
- Alizarin Red staining (calcium deposition) [5]: weak signal

Compound: O=C([O-])[O-].[Na+].[Na+] [NaCO3, sodium carbonate]
- embryonic development compared to control or ACC-PP ([1]; Example 15, 1.7 mM): very poor embryonic development
- 8 cell/d2, number of embryos [1, 8]: 2
- Blast/d3, number of embryos [1, 8]: 0
- Blast/d4, number of embryos [1, 8]: 0
- Hatch/d4, number of embryos [1, 8]: 0
- Hatch/d4, portion of total number of embryos [1, 8]: (0) %
- comp/d2, number of embryos [1, 8]: 7
- degenerative, number of embryos [1, 8]: 1
- early Blast/d3, number of embryos [1, 8]: 0
- 8 cell/d2, number of embryos [1, 9]: 6
- Blast/d3, number of embryos [1, 9]: 2
- Blast/d4, number of embryos [1, 9]: 0
- Hatch/d4, number of embryos [1, 9]: 2
- Hatch/d4, portion of total number of embryos [1, 9]: (12.5) %
- comp/d2, number of embryos [1, 9]: 8
- degenerative, number of embryos [1, 9]: 2
- early Blast/d3, number of embryos [1, 9]: 14

Compound: polyphosphate [PP]
- 8 cell/d2, number of embryos [1, 10]: 9
- Blast/d3, number of embryos [1, 10]: 20
- Blast/d3, portion of initial number of embryos [1, 10]: 54.1%
- Hatch/d4, number of embryos [1, 10]: 17
- Hatch/d4, portion of initial number of embryos [1, 10]: 45.9%
- comp/d2, number of embryos [1, 10]: 20
- 8 cell/d2, number of embryos [1, 11]: 6
- Blast/d3, number of embryos [1, 11]: 34
- Blast/d3, portion of initial number of embryos [1, 11]: 94.44%
- Hatch/d4, number of embryos [1, 11]: 16
- Hatch/d4, portion of initial number of embryos [1, 11]: 44.44%
- comp/d2, number of embryos [1, 11]: 30
